Like-named read-outs stand apart in the source and are kept apart here.
What was measured:
delF508-CFTR [1] = target: T1, delF508-CFTR (Homo sapiens, UniProt P13569, DEL508-508); assay: Measurement of delF508-CFTR-HRP surface expression in CFBE41o- cells; assay type: cell-based; details: for Emax: CFBE41o-, efficacy relative to reference compound 3-(6-(1-(2,2-difluorobenzo[d][1,3]dioxol-5-yl)cyclopropane-1-carboxamido)-3-methylpyridin-2-yl)benzoic acid, read-out: DelF508-CFTR-HRP Amax %; for EC50: HRP-tagged delF508-CFTR surface expression, CFBE41o- cells, 24 h with compound, 10-point curve, highest concentration 10 μM
T1 construct: expressed in transfected cells
T1 sequence (P13569 with tags, fused parts or gaps DEL508-508): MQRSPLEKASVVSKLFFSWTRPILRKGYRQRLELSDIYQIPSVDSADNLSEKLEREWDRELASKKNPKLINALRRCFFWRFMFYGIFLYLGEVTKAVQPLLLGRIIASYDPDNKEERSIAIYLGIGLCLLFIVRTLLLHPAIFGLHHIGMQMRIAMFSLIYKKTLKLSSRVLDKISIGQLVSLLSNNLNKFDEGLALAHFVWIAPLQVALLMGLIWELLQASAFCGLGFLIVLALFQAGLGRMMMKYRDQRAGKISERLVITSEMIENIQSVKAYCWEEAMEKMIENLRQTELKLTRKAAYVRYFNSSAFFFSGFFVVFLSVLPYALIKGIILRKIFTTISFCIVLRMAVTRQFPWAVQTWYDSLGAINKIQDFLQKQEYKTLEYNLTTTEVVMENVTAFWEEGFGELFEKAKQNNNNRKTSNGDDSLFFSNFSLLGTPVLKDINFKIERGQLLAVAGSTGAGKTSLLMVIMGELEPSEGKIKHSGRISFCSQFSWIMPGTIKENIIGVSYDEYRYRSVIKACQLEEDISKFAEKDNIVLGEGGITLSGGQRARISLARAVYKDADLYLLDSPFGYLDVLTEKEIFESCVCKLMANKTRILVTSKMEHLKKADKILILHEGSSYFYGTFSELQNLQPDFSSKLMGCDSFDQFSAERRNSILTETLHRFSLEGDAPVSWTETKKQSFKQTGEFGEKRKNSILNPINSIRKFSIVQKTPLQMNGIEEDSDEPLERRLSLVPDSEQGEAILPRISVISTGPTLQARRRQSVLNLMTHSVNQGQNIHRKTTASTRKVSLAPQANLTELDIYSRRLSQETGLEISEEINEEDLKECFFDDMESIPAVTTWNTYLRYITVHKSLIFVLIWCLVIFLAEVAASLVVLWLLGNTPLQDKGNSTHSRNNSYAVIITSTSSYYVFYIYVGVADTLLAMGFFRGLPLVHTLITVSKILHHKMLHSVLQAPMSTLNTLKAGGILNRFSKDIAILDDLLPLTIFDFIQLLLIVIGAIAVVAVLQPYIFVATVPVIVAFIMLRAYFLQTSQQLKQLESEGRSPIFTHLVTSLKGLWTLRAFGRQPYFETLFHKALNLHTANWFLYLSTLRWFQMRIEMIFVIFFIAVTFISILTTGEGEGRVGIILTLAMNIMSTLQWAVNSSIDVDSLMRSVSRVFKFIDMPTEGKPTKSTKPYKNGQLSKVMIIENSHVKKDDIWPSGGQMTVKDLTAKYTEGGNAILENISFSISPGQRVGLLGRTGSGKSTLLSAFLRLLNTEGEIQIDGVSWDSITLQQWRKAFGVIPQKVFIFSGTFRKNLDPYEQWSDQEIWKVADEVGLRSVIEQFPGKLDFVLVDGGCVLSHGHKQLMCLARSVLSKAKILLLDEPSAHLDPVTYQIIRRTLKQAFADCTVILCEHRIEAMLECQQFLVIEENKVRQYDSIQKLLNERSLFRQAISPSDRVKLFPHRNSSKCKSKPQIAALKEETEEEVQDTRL
Outline: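 CFBE41o- cells stably expressing delF508-CFTR with HRP in the fourth extracellular loop, induced 48 h with 500 ng/mL doxycycline, then exposed to compound (10-point, 3-fold, top 10 μM, ≤0.5% DMSO) for 24 h at 37° C. Surface HRP read by luminescence with cell-impermeant substrate; EC50 by logistic fit, triplicates, efficacy relative to reference corrector.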

delF508-CFTR [2] = target: T1, delF508-CFTR; assay: Measurement of delF508-CFTR functional activity in primary human bronchial epithelial cells (HBECs) using MTECC-24 assay; assay type: cell-based; details: for EC50: primary human delF508-CFTR bronchial epithelial cells, 24 hr compound treatment, equivalent short circuit current, forskolin and potentiator, mean of at least two replicates, read-out: MTECC24 CFHBEC EC50; for MTECC24 CFHBEC Amax %: test compound (24 h) with potentiator (S)-3-amino-6-methoxy-N-(3,3,3-trifluoro-2-hydroxy-2-methylpropyl)-5-(trifluoromethyl)picolinamide, relative to 2 μM 3-(6-(1-(2,2-difluorobenzo[d][1,3]dioxol-5-yl)cyclopropane-1-carboxamido)-3-methylpyridin-2-yl)benzoic acid plus 0.5 μM N-(2,4-di-tert-butyl-5-hydroxyphenyl)-4-oxo-1,4-dihydroquinoline-3-carboxamide
Excerpt: Measurement of delF508-CFTR Functional Activity in Primary Human Bronchial Epithelial Cells (HBECs) Using Multi-Transepithelial Clamp Circuit (MTECC-24) Assay
This assay measures the functional activity of the CFTR channel (Chloride ion transport) in patient derived primary human bronchial epithilial cells with forskolin activation and in the presence of the CFTR corrector/potentiator combination.
Primary human delF508-CFTR bronchial epithelial cells were and cultured according to previously established methods (Neuberger, T. et, al., Methods in Molecular Biology, 2011, 741, pp 39-54). Briefly, before thawing the HBEC cells, T25 flasks were coated with 2 mL of 3T3 conditioned media (MTI-GlobalStem, Cat #GSM9100) for at least 12 hours in 37° C. CO2 incubator. 1.7×10^5 cells were seeded into one T25 flask with 5 mL of HBE growth media (BEBM with supplements (Lonza, Cat #CC-3170) with 10 nM of retinoic acid (Sigma, Cat #R-2625) and 1% of PSA (Hyclone, Cat #SV30079.01). Media was changed every day till the cells were 100% confluent. Cells were seeded into T75 flasks (pre-coated with 5 mL of 3T3 conditioned media for more than 12 hrs) at 4.95×10^5 cells/T75 flask in 15 mL of HBE growth media. Flasks were fed everyday with fresh HBE growth media until the cells were confluent. 24-well transwell plates (Corning, Cat #3378) were coated with 3T3 conditioned media (70 μL on top of the filter, 350 μL to the bottom of the well) overnight in the 37° C. CO2 incubator. Cells were seeded in the pre-coated 24-well transwell plates at 1.7×10^5 cell/well with 700 μL of growth media at the bottom of the well and 200 μL of growth media at the top of the filter. After 24 hrs, cells were switched into HBE differentiation media ((DMEM/F12 (Gibco, Cat #11330-032) supplement with 2% Ultroser G (Pall, Cat #15950-017), 2% of Fetal Clone II (Hyclone, Cat #SH30066.03), 0.25% Bovine Brain Extract (Lonza, Cat #CC-4098), 1% of PSA, 2.5 μg/mL of Insulin (Sigma, Cat #19278), 20 nM of Hydrocortisone (Sigma, Cat #H0888), 500 nM of Triiodothyronine (Sigma, Cat #T6397), 2.5 μg/mL of Transferrin (Sigma, Cat #T8158), 250 nM of Ethanolamine (Sigma, Cat #E0135), 1.5 μM of Epinephrine (Sigma, Cat #E4250), 250 nM of Phosphoethanolamine (Sigma, Cat #P0503), 10 nM of retinoic acid)) with 200 μL on top of the filter (apical side) and 700 μL at the bottom of the well (basolateral side). Cells were fed every other day with the differentiation media. After 4 days, cells were exposed to air/liquid interface. Then cells were fed every other day for 4 weeks before fully differentiated.
Cells were washed with 3 mM DTT in PBS at 70 ul/well for 30 min at 37° C. 6 days before the assay. 3 days before the assay, cells were washed again with PBS at 70 ul/well for 30 min at 37° C. Then cells were treated with compound for 24 hrs before the assay.
Following 24 hr treatment with compound, cells were transferred into plates containing 750 ul of assay media on basolateral side and 250 ul on apical side (Assay medium: F-12 Coon's modified, 20 mM HEPES pH7.4 with TRIS Base, No FCS or bicarbonate). The plates wee then transferred to the heated plate compartments (basolateral buffer temperature ˜36.5° C. on the heating block) of the TECC24 system for 45 mins prior to measurements.
Modulators were added sequentially as follows while the TECC24 instrument recorded the equivalent short circuit current (Ieq):
Prior to dilution into assay medium the stocks were as follows: Benzamil stock: 10 mM in DMSO
Forskolin Stock: 50 mM in DMSO
N-(2,4-di-tert-butyl-5-hydroxyphenyl)-1,4-dihydro-4-oxoquinoline-3-carboxamide: 50 mM in DMSO (S)-3-amino-6-methoxy-N-(3,3,3-trifluoro-2-hydroxy-2-methylpropyl)-5-(trifluoromethyl)picolinamide: 50 mM stock 100% DMSO Bumetanide stock: 20 mM in EtOH
The data was normalized using the median signal from wells treated with 0.1% DMSO as a baseline. Curve fitting and EC50 calculations were performed using the following equation: […]

Molecule: O=S1(=O)Nc2ccc(C(F)(F)F)c(n2)-c2ccccc2C=CCCC(CCCO)Oc2cccc1n2 (stereo not drawn)
- ring closure, isolated yield (from C=CCCC(CCCO)Oc1cccc(S(=O)(=O)Nc2ccc(C(F)(F)F)c(-c3ccccc3C=C)n2)n1, rcm bond, 16-membered ring, Grubbs II (10 mol%), DCM, 3.68 mM, 45.0 °C): 95%

Molecule: O=S1(=O)Nc2ccc(C(F)(F)F)c(n2)-c2ccccc2C=CCCCCN(CCCCCO)c2cccc1n2
- ring closure, isolated yield (from C=CCCCCN(CCCCCO)c1cccc(S(=O)(=O)Nc2ccc(C(F)(F)F)c(-c3ccccc3C=C)n2)n1, rcm bond, 17-membered ring, Grubbs II (20 mol%), DCM (or DCE), 1.85 mM, 55.0 °C): 94%

Molecule: O=S1(=O)Nc2ccc(C(F)(F)F)c(n2)-c2ccccc2C=CCCN(CCO)c2cccc1n2
- ring closure, isolated yield (from C=CCCN(CCO)c1cccc(S(=O)(=O)Nc2ccc(C(F)(F)F)c(-c3ccccc3C=C)n2)n1, rcm bond, 15-membered ring, Grubbs II (two portions), DCM, 2.1 mM, 45.0 °C): 91%

Molecule: O=C(O)CCCN1CCCCc2ccccc2-c2nc(ccc2C(F)(F)F)NS(=O)(=O)c2cccc1n2 [Compound 90, 4-(4,4-dioxido-2^3-(trifluoromethyl)-4-thia-3,6-diaza-2,5(2,6)-dipyridina-1(1,2)-benzenacyclodecaphane-6-yl)butanoic acid]
- Emax (delF508-CFTR [1]): 674%
- EC50 (delF508-CFTR [1]): 919 nM
- EC50 (delF508-CFTR [2]): 4.6 nM
- MTECC24 CFHBEC Amax % (delF508-CFTR [2]): 123.2%

Molecule: O=C(O)CCN1CCCCCc2ccccc2-c2nc(ccc2C(F)(F)F)NS(=O)(=O)c2cccc1n2 [Compound 92, 3-(4,4-dioxido-2^3-(trifluoromethyl)-4-thia-3,6-diaza-2,5(2,6)-dipyridina-1(1,2)-benzenacycloundecaphane-6-yl)propanoic acid]
- Emax (delF508-CFTR [1]): 982%
- EC50 (delF508-CFTR [1]): 694 nM
- EC50 (delF508-CFTR [2]): 6.9 nM
- MTECC24 CFHBEC Amax % (delF508-CFTR [2]): 90.0%

Molecule: CC(C)(CN1CCCCCCc2ccccc2-c2nc(ccc2C(F)(F)F)NS(=O)(=O)c2cccc1n2)C(=O)O [Compound 99, 3-(4,4-dioxido-2^3-(trifluoromethyl)-4-thia-3,6-diaza-2,5(2,6)-dipyridina-1(1,2)-benzenacyclododecaphane-6-yl)-2,2-dimethylpropanoic acid]
- EC50 (delF508-CFTR [1]): 230 nM
- EC50 (delF508-CFTR [2]): 0.8 nM
- MTECC24 CFHBEC Amax % (delF508-CFTR [2]): 279.3%

Molecule: CC(C)(CN1CCCCCc2ccccc2-c2nc(ccc2C(F)(F)F)NS(=O)(=O)c2cccc1n2)C(=O)O [Compound 100, 3-(4,4-dioxido-2^3-(trifluoromethyl)-4-thia-3,6-diaza-2,5(2,6)-dipyridina-1(1,2)-benzenacycloundecaphane-6-yl)-2,2-dimethylpropanoic acid]
- EC50 (delF508-CFTR [1]): 351 nM
- EC50 (delF508-CFTR [2]): 4.3 nM
- MTECC24 CFHBEC Amax % (delF508-CFTR [2]): 175.8%

Molecule: O=S1(=O)Nc2ccc(C(F)(F)F)c(n2)-c2ccccc2CCCCCN(CCO)c2cccc1n2 [Compound 117, 6-(2-hydroxyethyl)-2^3-(trifluoromethyl)-4-thia-3,6-diaza-2,5(2,6)-dipyridina-1(1,2)-benzenacycloundecaphane 4,4-dioxide]
- EC50 (delF508-CFTR [1]): 391 nM
- EC50 (delF508-CFTR [2]): 1 nM
- MTECC24 CFHBEC Amax % (delF508-CFTR [2]): 213.1%

Molecule: tert-butyl 4-(4,4-dioxido-2^3-(trifluoromethyl)-10-oxa-4-thia-3,6-diaza-2,5(2,6)-dipyridina-1(1,2)-benzenacycloundecaphane-6-yl)butanoate
- ring closure, isolated yield (snar bond, 16-membered ring, DIEA, NMP, 40.0 mM, 135.0 °C): 75%

Source: US20220071971A1, “MACROCYCLIC COMPOUNDS AND THEIR USE IN THE TREATMENT OF DISEASE” (NOVARTIS AG, priority 2018, published 2022)
